Experimental findings from patent US11891365B2, “3-alkyl-4-amido-bicyclic [4,5,0] hydroxamic acids as HDAC inhibitors” (Valo Health, Inc., priority 2015, dated 2024) are described below.

The test concerns the target T1, Full length human recombinant HDAC6 protein (Homo sapiens, UniProt Q9UBN7).
T1 sequence (Q9UBN7 1-1215): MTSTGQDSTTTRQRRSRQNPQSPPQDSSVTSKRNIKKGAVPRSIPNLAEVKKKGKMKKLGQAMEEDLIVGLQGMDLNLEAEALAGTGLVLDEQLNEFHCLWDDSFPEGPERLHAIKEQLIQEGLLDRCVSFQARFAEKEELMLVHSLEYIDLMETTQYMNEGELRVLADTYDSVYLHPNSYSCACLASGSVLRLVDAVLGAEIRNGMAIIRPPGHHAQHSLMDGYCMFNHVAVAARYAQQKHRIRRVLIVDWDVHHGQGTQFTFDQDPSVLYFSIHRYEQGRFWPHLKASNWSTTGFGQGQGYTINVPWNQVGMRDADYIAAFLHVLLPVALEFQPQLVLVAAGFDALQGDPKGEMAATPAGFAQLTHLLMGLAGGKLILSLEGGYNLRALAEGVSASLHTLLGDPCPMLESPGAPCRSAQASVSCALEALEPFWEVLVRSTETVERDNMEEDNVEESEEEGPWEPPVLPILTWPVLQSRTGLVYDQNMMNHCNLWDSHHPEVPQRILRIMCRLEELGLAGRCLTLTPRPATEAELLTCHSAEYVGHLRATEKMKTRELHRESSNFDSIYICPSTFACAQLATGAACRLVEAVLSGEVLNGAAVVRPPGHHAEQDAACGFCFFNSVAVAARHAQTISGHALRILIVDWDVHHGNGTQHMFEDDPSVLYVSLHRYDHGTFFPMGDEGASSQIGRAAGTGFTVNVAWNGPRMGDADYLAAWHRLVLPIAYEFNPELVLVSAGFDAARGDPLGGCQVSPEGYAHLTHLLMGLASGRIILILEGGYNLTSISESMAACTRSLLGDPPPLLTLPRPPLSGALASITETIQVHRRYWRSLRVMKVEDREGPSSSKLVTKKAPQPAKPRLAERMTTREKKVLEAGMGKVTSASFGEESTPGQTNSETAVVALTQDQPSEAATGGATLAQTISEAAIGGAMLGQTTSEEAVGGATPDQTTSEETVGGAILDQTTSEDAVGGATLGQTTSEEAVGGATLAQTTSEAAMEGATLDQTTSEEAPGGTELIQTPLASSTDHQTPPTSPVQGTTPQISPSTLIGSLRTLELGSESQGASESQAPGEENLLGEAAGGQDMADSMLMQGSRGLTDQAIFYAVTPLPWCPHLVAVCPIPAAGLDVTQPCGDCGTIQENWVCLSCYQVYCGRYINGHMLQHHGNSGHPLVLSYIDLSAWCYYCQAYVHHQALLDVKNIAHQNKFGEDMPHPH
Nature of the test: In vitro histone deacetylase assay: enzymatic HDAC6 electrophoretic mobility shift assay. In kind it is biochemical. The settings on record: 1 nM enzyme, 2 μM peptide substrate RHKK(Ac)-NH2, 25° C., 12 concentrations; read-out: Inhibitory Concentration (IC50) Values against HDAC6, Activity Range. For orientation: A gel shift assay detects complexes by their altered migration in electrophoresis.

SMILES strings stand for the structures. pIC50: −log10 of the molar value.

Consider `COCC1(C(=O)N2Cc3ccc(C(=O)NO)cc3OC[C@@H]2C)COC1` [(S)-N-hydroxy-4-(3-(methoxymethyl)oxetane-3-carbonyl)-3-methyl-2,3,4,5-tetrahydrobenzo[f][1,4]oxazepine-8-carboxamide], for which the pIC50 was at least 7.00.

For the compound `COCC1(C(=O)N2CCOc3cc(C(=O)NO)ccc3[C@@H]2C)COC1` [(S)-N-hydroxy-4-(3-(methoxymethyl)oxetane-3-carbonyl)-5-methyl-2,3,4,5-tetrahydrobenzo[f][1,4]oxazepine-8-carboxamide], the pIC50 was at least 7.00.

For `C[C@H]1COc2cc(C(=O)NO)ccc2CN1C(=O)C(C)(C)CO` [(S)-N-hydroxy-4-(3-hydroxy-2,2-dimethylpropanoyl)-3-methyl-2,3,4,5-tetrahydrobenzo[f][1,4]oxazepine-8-carboxamide], the pIC50 is at least 7.00.

Turning to `C[C@H]1COc2cc(C(=O)NO)ccc2CN1C(=O)CC(C)(C)O` [(S)-N-hydroxy-4-(3-hydroxy-3-methylbutanoyl)-3-methyl-2,3,4,5-tetrahydrobenzo[f][1,4]oxazepine-8-carboxamide], the pIC50 is at least 7.00.

For `COC(C)(C)CC(=O)N1Cc2ccc(C(=O)NO)cc2OC[C@@H]1C` [(S)-N-hydroxy-4-(3-methoxy-3-methylbutanoyl)-3-methyl-2,3,4,5-tetrahydrobenzo[f][1,4]oxazepine-8-carboxamide], the pIC50 is at least 7.00.

For the compound `COCCC(=O)N1Cc2ccc(C(=O)NO)cc2OC[C@@H]1C` [(S)-N-hydroxy-4-(3-methoxypropanoyl)-3-methyl-2,3,4,5-tetrahydrobenzo[f][1,4]oxazepine-8-carboxamide], the pIC50 was at least 7.00.

In the case of `COCC1(C(=O)N2Cc3ccc(C(=O)NO)cc3OC[C@@H]2C)CCOCC1` [(S)-N-hydroxy-4-(4-(methoxymethyl)tetrahydro-2H-pyran-4-carbonyl)-3-methyl-2,3,4,5-tetrahydrobenzo[f][1,4]oxazepine-8-carboxamide], the pIC50 was at least 7.00.

`COCC1(C(=O)N2CCOc3cc(C(=O)NO)ccc3[C@@H]2C)CCOCC1` [(S)-N-hydroxy-4-(4-(methoxymethyl)tetrahydro-2H-pyran-4-carbonyl)-5-methyl-2,3,4,5-tetrahydrobenzo[f][1,4]oxazepine-8-carboxamide]: the pIC50 is at least 7.00.

For `COC1(C(=O)N2Cc3ccc(C(=O)NO)cc3OC[C@@H]2C)CCOCC1` [(S)-N-hydroxy-4-(4-methoxytetrahydro-2H-pyran-4-carbonyl)-3-methyl-2,3,4,5-tetrahydrobenzo[f][1,4]oxazepine-8-carboxamide], the pIC50 was at least 7.00.

On to `CC(C)[C@@H]1C[C@@H](C(=O)N2Cc3ccc(C(=O)NO)cc3OC[C@@H]2C)CCO1` [(S)-N-hydroxy-4-((2S,4S)-2-isopropyltetrahydro-2H-pyran-4-carbonyl)-3-methyl-2,3,4,5-tetrahydrobenzo[f][1,4]oxazepine-8-carboxamide], for which the pIC50 was at least 7.00.

On to `O=C(NO)c1ccc2c(c1)OCCN(C(=O)[C@H]1CCCOC1)C2` [(S)-N-hydroxy-4-(tetrahydro-2H-pyran-3-carbonyl)-2,3,4,5-tetrahydrobenzo[f][1,4]oxazepine-8-carboxamide], for which the pIC50 is at least 7.00.

As for `O=C(NO)c1ccc2c(c1)OCCN(C(=O)[C@H]1CCOC1)C2` [(S)-N-hydroxy-4-(tetrahydrofuran-3-carbonyl)-2,3,4,5-tetrahydrobenzo[f][1,4]oxazepine-8-carboxamide], the pIC50 was at least 7.00.

On to `CC(C)C(=O)N1Cc2ccc(C(=O)NO)cc2OC[C@@H]1C` [(S)-N-hydroxy-4-isobutyryl-3-methyl-2,3,4,5-tetrahydrobenzo[f][1,4]oxazepine-8-carboxamide], for which the pIC50 was at least 7.00.

On to `CC(C)[C@H]1c2ccc(C(=O)NO)cc2OCCN1C(=O)C1COC1` [(S)-N-hydroxy-5-isopropyl-4-(oxetane-3-carbonyl)-2,3,4,5-tetrahydrobenzo[f][1,4]oxazepine-8-carboxamide], for which the pIC50 is under 6.30.

Regarding `CC(C)[C@H]1c2ccc(C(=O)NO)cc2OCCN1C(=O)C1CCOCC1` [(S)-N-hydroxy-5-isopropyl-4-(tetrahydro-2H-pyran-4-carbonyl)-2,3,4,5-tetrahydrobenzo[f][1,4]oxazepine-8-carboxamide], the pIC50 is under 6.30.

With `C[C@H]1c2cc(C(=O)NO)ccc2OCCN1C(=O)C1(C)CCC1` [(S)-N-hydroxy-5-methyl-4-(1-methylcyclobutane-1-carbonyl)-2,3,4,5-tetrahydrobenzo[f][1,4]oxazepine-7-carboxamide], the pIC50 is 6.30 to 7.00.

As to `C[C@H]1c2ccc(C(=O)NO)cc2OCCN1C(=O)C1(C)CCC1` [(S)-N-hydroxy-5-methyl-4-(1-methylcyclobutane-1-carbonyl)-2,3,4,5-tetrahydrobenzo[f][1,4]oxazepine-8-carboxamide], the pIC50 was at least 7.00.

As for `C[C@H]1c2ccc(C(=O)NO)cc2OCCN1C(=O)C1(C)COC1` [(S)-N-hydroxy-5-methyl-4-(3-methyloxetane-3-carbonyl)-2,3,4,5-tetrahydrobenzo[f][1,4]oxazepine-8-carboxamide], the pIC50 is at least 7.00.

As for `C[C@H]1c2ccc(C(=O)NO)cc2OCCN1C(=O)C1(C)CCOCC1` [(S)-N-hydroxy-5-methyl-4-(4-methyltetrahydro-2H-pyran-4-carbonyl)-2,3,4,5-tetrahydrobenzo[f][1,4]oxazepine-8-carboxamide], the pIC50 was at least 7.00.

As to `C[C@H]1c2ccc(C(=O)NO)cc2OCCN1C(=O)[C@]1(C)CCCOC1` [(S)-N-hydroxy-5-methyl-4-((R)-3-methyltetrahydro-2H-pyran-3-carbonyl)-2,3,4,5-tetrahydrobenzo[f][1,4]oxazepine-8-carboxamide], the pIC50 is at least 7.00.

Consider `C[C@H]1c2ccc(C(=O)NO)cc2OCCN1C(=O)[C@@H]1CCCOC1` [(S)-N-hydroxy-5-methyl-4-((R)-tetrahydro-2H-pyran-3-carbonyl)-2,3,4,5-tetrahydrobenzo[f][1,4]oxazepine-8-carboxamide], for which the pIC50 was at least 7.00.

Consider `C[C@H]1c2ccc(C(=O)NO)cc2OCCN1C(=O)[C@@H]1CCOC1` [(S)-N-hydroxy-5-methyl-4-((R)-tetrahydrofuran-3-carbonyl)-2,3,4,5-tetrahydrobenzo[f][1,4]oxazepine-8-carboxamide], for which the pIC50 was at least 7.00.

Regarding `C[C@H]1c2ccc(C(=O)NO)cc2OCCN1C(=O)[C@@]1(C)CCCOC1` [(S)-N-hydroxy-5-methyl-4-((S)-3-methyltetrahydro-2H-pyran-3-carbonyl)-2,3,4,5-tetrahydrobenzo[f][1,4]oxazepine-8-carboxamide], the pIC50 was at least 7.00.

`C[C@H]1c2ccc(C(=O)NO)cc2OCCN1C(=O)[C@H]1CCCOC1` [(S)-N-hydroxy-5-methyl-4-((S)-tetrahydro-2H-pyran-3-carbonyl)-2,3,4,5-tetrahydrobenzo[f][1,4]oxazepine-8-carboxamide]: the pIC50 was at least 7.00.

With `C[C@H]1c2ccc(C(=O)NO)cc2OCCN1C(=O)[C@H]1CCOC1` [(S)-N-hydroxy-5-methyl-4-((S)-tetrahydrofuran-3-carbonyl)-2,3,4,5-tetrahydrobenzo[f][1,4]oxazepine-8-carboxamide], the pIC50 was at least 7.00.

Turning to `C[C@H]1c2ccc(C(=O)NO)cc2OCCN1C(=O)C1COC1` [(S)-N-hydroxy-5-methyl-4-(oxetane-3-carbonyl)-2,3,4,5-tetrahydrobenzo[f][1,4]oxazepine-8-carboxamide], the pIC50 was at least 7.00.

With `C[C@H]1c2cc(C(=O)NO)ccc2OCCN1C(=O)C1CCOCC1` [(S)-N-hydroxy-5-methyl-4-(tetrahydro-2H-pyran-4-carbonyl)-2,3,4,5-tetrahydrobenzo[f][1,4]oxazepine-7-carboxamide], the pIC50 was under 6.30.

With `C[C@H]1c2ccc(C(=O)NO)cc2OCCN1C(=O)C1CCOCC1` [(S)-N-hydroxy-5-methyl-4-(tetrahydro-2H-pyran-4-carbonyl)-2,3,4,5-tetrahydrobenzo[f][1,4]oxazepine-8-carboxamide], the pIC50 was at least 7.00.

Consider `CN(C)C(=O)C1CN(C(=O)C2CCOCC2)Cc2ccc(C(=O)NO)cc2O1` (centres unmarked) [N8-hydroxy-N2,N2-dimethyl-4-(tetrahydro-2H-pyran-4-carbonyl)-2,3,4,5-tetrahydrobenzo[f][1,4]oxazepine-2,8-dicarboxamide], for which the pIC50 was 6.30 to 7.00.
